Earlier results in paper PMC8086892 (Peptide science (Hoboken, N.J.), 2020).

Columns and labels:
[1] = ref Orivel et al. [27]
[2] = ref Orivel et al. [27]; remark: listed apart in the source

## Ponericin L2
[1]
  Hemolytic activity: no detectable hemolytic activity
[2]
  Antimicrobial activity: broad spectrum antimicrobial activity
